Results reported in patent US10632064B2, “Topical regional neuro affective therapy with cannabinoid combination products” (Afgin Pharma, LLC, priority 2015, dated 2020).

How the values were obtained:
[1] = tested on: acute paranoid schizophrenia; conditions: after 2 weeks; cited from earlier work
[2] = tested on: human patient having a remote head injury, s/p 4 craniotomies and intractable seizures; experiment: Example 7: topical cannabidiol 40 mg at the BONATH, intractable seizures, EEG; format: in vivo; conditions: 25 mg milnacipran topical nuchal after cannabidiol 40 mg
Experimental: The efficacy of a topical cannabidiol formulation was studied in a human patient having a remote head injury, s/p 4 craniotomies and intractable seizures. The patient was treated with cannabidiol 40 mg applied to the BONATH in a topical formulation. There was attenuation of associated focal EEG abnormalities.

SMILES | psychotic symptoms [1] | EEG after further topical nuchal treatment [2]
CCN1CCCC1CNC(=O)c1cc(S(=O)(=O)CC)c(N)cc1OC (centres unmarked) [amisulpride] | significant decrease in psychotic symptoms | 
CCN(CC)C(=O)C1(c2ccccc2)CC1CN (centres unmarked) [milnacipran] |  | further attenuated
